One compound from patent EP0004835A1, “Ethanolamine compounds, processes for their preparation, pharmaceutical preparations containing them and their medicinal use” (priority 1978, dated 1979) can be followed below.

The target of the test is a-receptor. The experiment in a line: a-receptor blocking activity, noradrenaline-induced contraction of rabbit aortic strips. Also on record: species or system Albino rabbits. The text has this: The a-receptor blocking activity of two compounds of the invention was investigated. This effect is relevant in the treatment of asthma. It has been shown, e.g. by Nousiainen et al, Pharmacology 15, 469-477 (1977), that certain compounds having a-blocking effect may potentiate the effects of S-receptor-stimulating agents such as terbutaline.
In the test, the a-receptor blocking substance thymoxamine was used as reference.
Albino rabbits of both sexes (2-3 kg) were used. About 5 cm of the aorta was dissected out as near the arch as possible, transferred to a dish with Krebs solution and cut spirally. Usually 3 preparations were received from the dissected piece of vessel. Each strip was mounted in an organ bath in Krebs solution of 37°C and aerated with carbogen. The load on the preparation was 2 g and the tension changes recorded isometrically on Grass transducer FR03 and polygraph P5.
Noradrenaline, which is a strong a-receptor stimulating agent, exerts a contracting effect on the aortic strips when added to the bath. The a-receptor blocking effect of the test compound is measured by adding the test compound to the organ bath before adding nor-adrenaline.
Noradrenaline solution with a concentration producing 70-80 % of maximal contraction (0.03-0.06 µg/ml) was used. The test compound was added to the organ bath 10 minutes before the addition of noradrenaline.
The results are measured as the concentration of the test compound which inhibits the noradrenaline-induced contraction by 50 % (EC 50).
The EC 50 values are based on tests on 6 preparations obtained from 3 animals.

`COc1ccccc1CCC(C)(C)NCC(O)c1ccc(O)cc1.Cl` (stereo not drawn) [D 2343, 1-(4-hydroxyphenyl)--2-[1,1-dimethyl-3-(2-methoxyphenyl)propylamino]-ethanol hydrochloride]: under “rabbit aortic strips, compound added 10 minutes before noradrenaline, called EC 50, 6 preparations from 3 animals, read-out: Concentration inhibiting 50 % noradrenaline-induced contraction”, the IC50 was found to be 600 ± 200 nM. Also, under “rabbit aortic strips, result in words”, the “a-receptor blocking activity compared with thymoxamine” value is on record as “higher than the a-blocking effect of thymoxamine”. In addition, the “a-blocking effect in relation to β-stimulating effect” value (result in words, no data shown) is given as “obtained in the same dose range as its β-stimulating effect”.
